These results are taken from patent publication US12662505B2, “Steviol glycoside solubility enhancers” (CARGILL, INCORPORATED, priority 2019, dated 2026).

The conditions of series [1]: sensory evaluation; cited from earlier work.
Series [2] is classed as physicochemical. Here is the method:
Clear solutions without precipitates are considered soluble. Unless indicated otherwise herein, the term “solubility” refers to “equilibrium solubility.”
Upon heating to 80° C. for 15 minutes, rebaudioside D has an equilibrium solubility of 0.08% for at least four days at room temperature.

`C=C1C[C@@]23CC[C@H]4[C@@](C)(CCC[C@@]4(C)C(=O)O[C@@H]4O[C@H](CO)[C@@H](O)[C@H](O)[C@H]4O[C@@H]4O[C@H](CO)[C@@H](O)[C@H](O)[C@H]4O)[C@@H]2CC[C@]1(O[C@@H]1O[C@H](CO)[C@@H](O)[C@H](O[C@@H]2O[C@H](CO)[C@@H](O)[C@H](O)[C@H]2O)[C@H]1O[C@@H]1O[C@H](CO)[C@@H](O)[C@H](O)[C@H]1O)C3` [Rebaudioside D]: the “sweetness relative to sucrose” value in series [1] is listed as 200-220 times sweeter than sucrose. In addition, in series [2], the equilibrium solubility was determined as 0.08% and the instantaneous solubility entry is “less than 0.08%”.

Take `C=C1C[C@@]23CC[C@H]4[C@@](C)(CCC[C@@]4(C)C(=O)O[C@@H]4O[C@H](CO)[C@@H](O)[C@H](O[C@@H]5O[C@H](CO)[C@@H](O)[C@H](O)[C@H]5O)[C@H]4O[C@@H]4O[C@H](CO)[C@@H](O)[C@H](O)[C@H]4O)[C@@H]2CC[C@]1(O[C@@H]1O[C@H](CO)[C@@H](O)[C@H](O[C@@H]2O[C@H](CO)[C@@H](O)[C@H](O)[C@H]2O)[C@H]1O[C@@H]1O[C@H](CO)[C@@H](O)[C@H](O)[C@H]1O)C3` [Rebaudioside M]: in series [2], the equilibrium solubility entry is “about 0.2%” and the instantaneous solubility entry is recorded as “about 0.13%”.
